Drawing on patent US8846746B2, “Pyrazole compound and pharmaceutical use thereof” (Japan Tobacco Inc., priority 2011, dated 2014), this text covers IC50 and inhibition for 44 compounds.

Sequence of human SGLT1 (P13866 whole entry): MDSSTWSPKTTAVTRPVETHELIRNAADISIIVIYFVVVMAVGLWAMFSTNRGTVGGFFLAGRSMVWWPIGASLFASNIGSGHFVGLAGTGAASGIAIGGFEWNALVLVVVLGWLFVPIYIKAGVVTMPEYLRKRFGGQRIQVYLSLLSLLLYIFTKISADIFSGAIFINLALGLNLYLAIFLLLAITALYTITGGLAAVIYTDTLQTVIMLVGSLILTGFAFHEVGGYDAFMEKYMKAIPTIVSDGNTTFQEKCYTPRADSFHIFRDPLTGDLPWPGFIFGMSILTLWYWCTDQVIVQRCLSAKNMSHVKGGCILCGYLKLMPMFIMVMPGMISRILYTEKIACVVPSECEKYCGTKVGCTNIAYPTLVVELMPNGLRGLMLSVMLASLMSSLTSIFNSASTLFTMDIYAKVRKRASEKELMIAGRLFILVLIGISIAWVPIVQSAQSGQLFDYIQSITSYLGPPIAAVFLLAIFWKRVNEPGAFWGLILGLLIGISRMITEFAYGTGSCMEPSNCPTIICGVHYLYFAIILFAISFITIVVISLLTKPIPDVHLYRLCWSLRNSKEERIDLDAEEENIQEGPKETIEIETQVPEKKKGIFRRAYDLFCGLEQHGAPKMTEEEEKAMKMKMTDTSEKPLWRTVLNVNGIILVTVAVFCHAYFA

One experiment concerns the target human SGLT1 (Homo sapiens (Human), UniProt P13866). Description: SGLT1 inhibitory activity: 14C-AMG uptake into CHO-K1 cell line stably expressing human SGLT1. It counts as cell-based. As to conditions: 14C-AMG uptake, CHO-K1 cells expressing human SGLT1. Put shortly: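 Human SGLT1 was stably expressed in CHO-K1 cells. Cells were first held 20 min in sodium-free buffer, then exposed to compound in Na(+)/BSA buffer with tracer and AMG (2 mM in the added solution).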
Regarding `C[C@H]1C(=O)NC[C@@H]1C(=O)Nc1cc(-c2cccc(C(F)(F)F)c2)n(-c2ccccc2)n1` [Example 207], it took 4.7 nM to reach half-maximal inhibition (IC50).

The compound `CCC(F)(F)c1cccc(-c2cc(NC(=O)[C@H]3CNC(=O)[C@@H]3C)nn2-c2ccccc2Cl)c1` [Example 208] returned an IC50 of 1.3 nM.

`C[C@H]1C(=O)NC[C@@H]1C(=O)Nc1cc(-c2cccc(C(F)(F)F)c2)n(-c2cccc(F)c2)n1` [Example 209] showed an IC50 of 9.2 nM.

`C[C@H]1C(=O)NC[C@@H]1C(=O)Nc1cc(-c2cccc(OCC(F)(F)F)c2)n(-c2ccccc2)n1` [Example 210] had a 50% inhibitory concentration (IC50) of 5.9 nM.

`O=C1C[C@@H](C(=O)Nc2cc(-c3cccc(OCC(F)(F)F)c3)n(-c3ccc(F)cc3)n2)CN1` [Example 211] yielded an IC50 of 17 nM.

`C[C@H]1C(=O)NC[C@@H]1C(=O)Nc1cc(-c2cccc(OCC(F)(F)F)c2)n(-c2ccc(F)cc2)n1` [Example 212] came in with an IC50 of 5.8 nM.

Compound `O=C1C[C@@H](C(=O)Nc2cc(-c3cccc(C(F)(F)F)c3)n(-c3cccc(F)c3)n2)CN1` [Example 213] had an IC50 of 14 nM.

On to `O=C1C[C@@H](C(=O)Nc2cc(-c3cccc(OCC(F)(F)F)c3)n(-c3ccccc3Cl)n2)CN1` [Example 214], for which the midpoint of inhibition, the IC50, lay at 2.3 nM.

On to `C[C@H]1C(=O)NC[C@@H]1C(=O)Nc1cc(-c2cccc(OCC(F)(F)F)c2)n(-c2ccccc2Cl)n1` [Example 215], for which the IC50 came out at 1.4 nM.

In the case of `Cc1ccc(-n2nc(NC(=O)[C@H]3CNC(=O)C3)cc2-c2cccc(OCC(F)(F)F)c2)cc1` [Example 216], the IC50 came out at 8.7 nM.

On to `Cc1ccc(-n2nc(NC(=O)[C@H]3CNC(=O)[C@@H]3C)cc2-c2cccc(OCC(F)(F)F)c2)cc1` [Example 217], for which half-maximal inhibition (IC50) was put at 6.2 nM.

Turning to `C[C@H]1C(=O)NC[C@@H]1C(=O)Nc1cc(-c2cccc(OCC(F)(F)F)c2)n(-c2cccc(F)c2)n1` [Example 222], half-maximal inhibition (IC50) was put at 4.1 nM.

`Cc1ccccc1-n1nc(NC(=O)[C@H]2CNC(=O)[C@@H]2C)cc1-c1cccc(OC(F)(F)F)c1` [Example 223]: the half-inhibitory concentration (IC50) stood at 2.3 nM.

As for `Cc1ccccc1-n1nc(NC(=O)[C@H]2CNC(=O)C2)cc1-c1cccc(C(F)(F)F)c1` [Example 224], it took 6.3 nM to reach half-maximal inhibition (IC50).

As to `Cc1ccccc1-n1nc(NC(=O)[C@H]2CNC(=O)[C@@H]2C)cc1-c1cccc(C(F)(F)F)c1` [Example 225], the IC50 amounted to 3.9 nM.

In turn, `Cc1ccccc1-n1nc(NC(=O)[C@H]2CNC(=O)C2)cc1-c1cccc(OCC(F)(F)F)c1` [Example 226] yielded an IC50 of 3.3 nM.

Take `Cc1ccccc1-n1nc(NC(=O)[C@H]2CNC(=O)[C@@H]2C)cc1-c1cccc(OCC(F)(F)F)c1` [Example 227]: the IC50 is 2.1 nM.

As to `O=C1C[C@@H](C(=O)Nc2cc(-c3cccc(C(F)(F)F)c3)n(-c3ccccc3F)n2)CN1` [Example 228], the IC50 is 8.6 nM.

With `C[C@H]1C(=O)NC[C@@H]1C(=O)Nc1cc(-c2cccc(C(F)(F)F)c2)n(-c2ccccc2F)n1` [Example 229], the IC50 came to 3.1 nM.

Compound `Cc1ccc(-n2nc(NC(=O)[C@H]3CNC(=O)C3)cc2-c2cccc(C(F)(F)F)c2)cc1` [Example 230] showed an IC50 of 12 nM.

In the case of `Cc1ccc(-n2nc(NC(=O)[C@H]3CNC(=O)[C@@H]3C)cc2-c2cccc(C(F)(F)F)c2)cc1` [Example 231], 6.7 nM corresponded to half-maximal inhibition (IC50).

In turn, `C[C@H]1C(=O)NC[C@@H]1C(=O)Nc1cc(-c2cccc(OC(F)(F)F)c2)n(CCC2CCOCC2)n1` [Example 232] registered an IC50 of 32 nM.

With `Cc1ccc(-n2nc(NC(=O)[C@H]3CNC(=O)C3)cc2-c2cccc(OC(F)(F)F)c2)cc1` [Example 233], the IC50 stood at 20 nM.

The compound `Cc1ccc(-n2nc(NC(=O)[C@H]3CNC(=O)[C@@H]3C)cc2-c2cccc(OC(F)(F)F)c2)cc1` [Example 234] returned an IC50 of 7.4 nM.

The experiment is the same for the next values; noted with them: 14C-AMG uptake, CHO-K1 cells stably expressing human SGLT1.
Take `C[C@@H](OCc1cc(F)cc(-c2cc(NC(=O)[C@@H]3CNC(=O)C3)nn2-c2ccccc2)c1)C(F)(F)F` [Example 235, (S)-5-oxopyrrolidine-3-carboxylic acid{5-[3-fluoro-5-((R)-2,2,2-trifluoro-1-methylethoxymethyl)phenyl]-1-phenyl-1H-pyrazol-3-yl}amide]: half-maximal inhibition (IC50) required 3.4 nM.

`C[C@@H](OCc1cc(F)cc(-c2cc(NC(=O)[C@@H]3CNC(=O)C3)nn2-c2ccc(Cl)cc2)c1)C(F)(F)F` [Example 236, (S)-5-oxopyrrolidine-3-carboxylic acid{1-(4-chlorophenyl)-5-[3-fluoro-5-((R)-2,2,2-trifluoro-1-methylethoxymethyl)phenyl]-1H-pyrazol-3-yl}amide]: the IC50 came to 5.35 nM.

Take `C[C@@H](OCc1cc(F)cc(-c2cc(NC(=O)[C@@H]3CNC(=O)C3)nn2-c2ccccc2F)c1)C(F)(F)F` [Example 237, (S)-5-oxopyrrolidine-3-carboxylic acid{1-(2-fluorophenyl)-5-[3-fluoro-5-((R)-2,2,2-trifluoro-1-methylethoxymethyl)phenyl]-1H-pyrazol-3-yl}amide]: the IC50 amounted to 3.85 nM.

Turning to `C[C@@H](OCc1cccc(-c2cc(NC(=O)[C@@H]3CNC(=O)C3)nn2-c2ccc(F)cc2)c1)C(F)(F)F` [Example 238, (S)-5-oxopyrrolidine-3-carboxylic acid{1-(4-fluorophenyl)-5-[3-((R)-2,2,2-trifluoro-1-methylethoxymethyl)phenyl]-1H-pyrazol-3-yl}amide], the IC50 worked out at 7.9 nM.

As for `C[C@@H](OCc1cc(F)cc(-c2cc(NC(=O)[C@@H]3CNC(=O)C3)nn2-c2ccc(F)cc2)c1)C(F)(F)F` [Example 239, (S)-5-oxopyrrolidine-3-carboxylic acid{1-(4-fluorophenyl)-5-[3-fluoro-5-((R)-2,2,2-trifluoro-1-methylethoxymethyl)phenyl]-1H-pyrazol-3-yl}amide], the IC50 is 7 nM.

Turning to `C[C@@H](OCc1cc(F)cc(-c2cc(NC(=O)[C@H]3CNC(=O)N3)nn2-c2ccc(F)cc2)c1)C(F)(F)F` [Example 240, (R)-2-oxoimidazolidine-4-carboxylic acid{1-(4-fluorophenyl)-5-[3-fluoro-5-((R)-2,2,2-trifluoro-1-methylethoxymethyl)phenyl]-1H-pyrazol-3-yl}amide], half-maximal inhibition (IC50) was put at 20 nM.

As for `C[C@@H](OCc1cc(Cl)cc(-c2cc(NC(=O)[C@@H]3CNC(=O)C3)nn2-c2ccccc2)c1)C(F)(F)F` [Example 241, (S)-5-oxopyrrolidine-3-carboxylic acid{5-[3-chloro-5-((R)-2,2,2-trifluoro-1-methylethoxymethyl)phenyl]-1-phenyl-1H-pyrazol-3-yl}amide], the midpoint of inhibition, the IC50, lay at 9.95 nM.

Take `C[C@@H](OCc1cc(Cl)cc(-c2cc(NC(=O)[C@@H]3CNC(=O)C3)nn2-c2ccc(F)cc2)c1)C(F)(F)F` [Example 242, (S)-5-oxopyrrolidine-3-carboxylic acid{5-[3-chloro-5-((R)-2,2,2-trifluoro-1-methylethoxymethyl)phenyl]-1-(4-fluorophenyl)-1H-pyrazol-3-yl}amide]: inhibition was half-maximal at 9 nM (IC50).

In turn, `CC(C)(OCc1cc(Cl)cc(-c2cc(NC(=O)[C@@H]3CNC(=O)C3)nn2-c2ccccc2)c1)C(F)(F)F` [Example 243, (S)-5-oxopyrrolidine-3-carboxylic acid[5-[3-chloro-5-(2,2,2-trifluoro-1,1-dimethylethoxymethyl)phenyl]-1-phenyl-1H-pyrazol-3-yl]amide] returned an IC50 of 14 nM.

As for `C[C@@H](OCc1cccc(-c2cc(NC(=O)[C@@H]3CNC(=O)C3)nn2-c2ccc(Cl)cc2)c1)C(F)(F)F` [Example 244, (S)-5-oxopyrrolidine-3-carboxylic acid{1-(4-chlorophenyl)-5-[3-((R)-2,2,2-trifluoro-1-methylethoxymethyl)phenyl]-1H-pyrazol-3-yl}amide], it took 8 nM to reach half-maximal inhibition (IC50).

`CCCCc1cccc(-c2cc(NC(=O)[C@H]3CNC(=O)N3)nn2-c2ccccc2)c1` [Example 245, (R)-2-Oxoimidazolidine-4-carboxylic acid[5-(3-butylphenyl)-1-phenyl-1H-pyrazol-3-yl]amide] yielded an IC50 of 19 nM.

As to `O=C1C[C@H](C(=O)Nc2cc(-c3cccc(COC(C(F)(F)F)C(F)(F)F)c3)n(-c3ccccc3)n2)CN1` [Example 246, (S)-5-oxopyrrolidine-3-carboxylic acid{1-phenyl-5-[3-(2,2,2-trifluoro-1-trifluoromethylethoxymethyl)phenyl]-1H-pyrazol-3-yl}amide], half-maximal inhibition (IC50) required 11.5 nM.

Regarding `O=C1C[C@H](C(=O)Nc2cc(-c3cc(F)cc(COCC(F)(F)F)c3)n(-c3ccc(F)cc3)n2)CN1` [Example 248, (S)-5-oxopyrrolidine-3-carboxylic acid{1-(4-fluorophenyl)-5-[3-fluoro-5-(2,2,2-trifluoroethoxymethyl)phenyl]-1H-pyrazol-3-yl}amide], half-maximal inhibition (IC50) was put at 25 nM.

Take `CCCc1cccc(-c2cc(NC(=O)C34CNC(=O)C3C4)nn2-c2ccccc2)c1` (centres unmarked) [Example 249, 4-oxo-3-azabicyclo[3.1.0]hexane-1-carboxylic acid[1-phenyl-5-(3-propylphenyl)-1H-pyrazol-3-yl]amide]: the IC50 was 39 nM.

Still in this experiment, the particulars now being: CHO-K1, at 0.03 uM.
The compound `O=C1NCC(C(=O)Nc2cc(-c3cccc(OC(F)(F)F)c3)n(-c3ccccc3)n2)CN1` [Example 252] displayed an inhibition at 0.03 µM of 7%.

Staying with this experiment, now noted: CHO-K1, at 0.1 uM.
On to `C[C@@H]1C[C@@H](n2nc(NC(=O)[C@H]3CNC(=O)C3)cc2-c2cccc(OC(F)(F)F)c2)C[C@H](C)O1` [Example 218], for which 0.1 µM produced 26% inhibition.

`C[C@@H]1C[C@H](n2nc(NC(=O)[C@H]3CNC(=O)C3)cc2-c2cccc(OC(F)(F)F)c2)C[C@H](C)O1` [Example 219] gave an inhibition at 0.1 µM of 20%.

`C[C@@H]1C[C@@H](n2nc(NC(=O)[C@H]3CNC(=O)[C@@H]3C)cc2-c2cccc(OC(F)(F)F)c2)C[C@H](C)O1` [Example 220] gave an inhibition at 0.1 µM of 16%.

On to `C[C@@H]1C[C@H](n2nc(NC(=O)[C@H]3CNC(=O)[C@@H]3C)cc2-c2cccc(OC(F)(F)F)c2)C[C@H](C)O1` [Example 221], for which the inhibition at 0.1 µM is 15%.

In turn, `CCCc1cccc(-c2cc(NC(=O)C3CNC(=O)NC3)nn2-c2ccccc2)c1` [Example 251] showed an inhibition at 0.1 µM of 41%.
